Measurements taken from patent publication US7645753B2, “Benzothiazole, thiazolopyridine, benzooxazole and oxazolopyridine derivatives” (Hoffmann-La Roche Inc., priority 2005, dated 2010).

Target: T1, human subtype 5 somatostatin receptor (Homo sapiens, UniProt P35346)
T1 construct: host or cells: CHO cells, stably transfected; membranes prepared by sonication and fractionating centrifugation
Assay: Radioligand binding to membranes of CHO cells expressing human SSTR5 (125I-labeled 11-Tyr somatostatin-14 tracer)
Settings: Ki calculated from IC50 by Cheng-Prussoff equation
Experimental: A CHO cell line stably transfected with a plasmid encoding the human subtype 5 somatostatin receptor (GenBank accession number D16827) was obtained from Euroscreen. Cells were cultured and used for binding and functional assays.
Membranes of these cells were prepared by sonication in the presence of protease inhibitors and subsequent fractionating centrifugation. The protein concentration in the membrane preparation was determined using a commercial kit (BCA kit, Pierce, USA). Membranes were stored at −80° C. until use. After thawing, membranes were diluted in assay buffer (50 mM Tris-HCl at pH 7.4, 5 mM MgCl2 and 0.20% BSA) and subjected to dounce homogenization.
For binding studies, 0.1 mL membrane suspension, corresponding to app. 6×10^−15 mol receptor, was incubated for 1 h at room temperature with 0.05 nM ^125I-labeled tracer (11-Tyr somatostatin-14, Perkin-Elmer) and either test compounds in varying concentrations or, for the determination of non-specific binding, 0.001 mM non-labeled somatostatin-14. The incubation was stopped by filtration through GF/B glassfiber filters and washing with ice-cold wash buffer (50 mM Tris-HCl at pH 7.4). The bound radioactivity was measured after application of a scintillation cocktail (Microscint 40) and expressed as disintegrations per minute (dpm).
The receptor concentration was determined in a prior saturation experiment where a fixed, arbitrary amount of membranes was incubated with a concentration range of radio-labeled tracer. This allows estimating the total number of specific binding sites per amount of protein (i.e., Bmax), typically between 1 and 5 pmol/mg.
The concentration of the test compound required to result in half maximal inhibition of binding of the radio-labeled tracer (IC50) was estimated from a concentration-versus-dpm graph. The binding affinity (Ki) was calculated from the IC50 by applying the Cheng-Prussoff equation for single binding sites.

T1 sequence (P35346 whole entry): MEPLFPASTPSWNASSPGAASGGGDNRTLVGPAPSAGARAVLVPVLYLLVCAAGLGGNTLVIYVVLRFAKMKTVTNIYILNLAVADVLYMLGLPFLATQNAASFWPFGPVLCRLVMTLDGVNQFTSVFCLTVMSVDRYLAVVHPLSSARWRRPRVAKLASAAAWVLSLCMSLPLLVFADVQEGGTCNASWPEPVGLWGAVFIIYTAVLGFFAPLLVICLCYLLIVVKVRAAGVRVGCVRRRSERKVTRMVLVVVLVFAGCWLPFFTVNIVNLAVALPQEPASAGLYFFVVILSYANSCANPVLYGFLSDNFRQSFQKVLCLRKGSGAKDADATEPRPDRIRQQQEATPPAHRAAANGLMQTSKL

Ki [nM] | SMILES
293 | CCOc1cc(CN2CCC(Nc3nc4cc(NC(=O)CC)ccc4o3)CC2)ccc1OC [Example 243, N-{2-[1-(3-ethoxy-4-methoxy-benzyl)-piperidin-4-ylamino]-benzooxazol-5-yl}-propionamide]
59 | CCOc1cc(CN2CCC(Nc3nc4ccc(Cl)cc4o3)CC2)cc(OCC)c1-n1cccc1 [Example 94, (6-chloro-benzooxazol-2-yl)-[1-(3,5-diethoxy-4-pyrrol-1-yl-benzyl)-piperidin-4-yl]-amine]
4.1 | CCOc1cc(CN2CCC(Nc3nc4cc(S(N)(=O)=O)ccc4o3)CC2)cc(OCC)c1-n1cccc1 [Example 129, 2-[1-(3,5-diethoxy-4-pyrrol-1-yl-benzyl)-piperidin-4-ylamino]-benzooxazole-5-sulfonic acid amide]
